One data set relates to L5178Y. As to the kind of experiment: Cytotoxicity against mouse L5178Y cells after 24 hrs by MTT assay. In kind it is functional, cell-based.
Another data set concerns NIH3T3. Description: Cytotoxicity against mouse NIH/3T3 cells after 24 hrs by MTT assay. In kind it is cell-based. The note with it: NIH3T3, 24 h. Background: Tetrazolium assays rely on reduction of a dye to a coloured formazan, in cell work by metabolically active cells.
Data set [1] can be described thus: Selectivity index, ratio of IC50 for mouse L5178Y cells to IC50 for human ABCB1 expressed in L5178Y cells.
A short description of data set [2]: Selectivity index, ratio of IC50 for mouse NIH/3T3 cells to IC50 for mouse L5178Y cells. In kind it is functional.
Data set [3] deals with T1, ATP-dependent translocase ABCB1 (Homo sapiens, UniProt P08183). As to the kind of experiment: Inhibition of human ABCB1 expressed in mouse L5178Y cells assessed as increase in rhodamine-123 accumulation by measuring forward scatter count of cells at 2 uM pretreated for 10 mins followed by rhodamine-123 addition after 20 mins by flow cytometry (reference value: 2206). In kind it is cell-based. A general note: A flow cytometer gives signals particle by particle.

The target in data set [4] is T1, ATP-dependent translocase ABCB1. As to the kind of experiment: Inhibition of human ABCB1 expressed in mouse L5178Y cells assessed as increase in rhodamine-123 accumulation by measuring forward scatter count of cells at 20 uM pretreated for 10 mins followed by rhodamine-123 addition after 20 mins by flow cytometry (reference value: 2206). In kind it is cell-based.

For data set [5] the target is unchanged. As to the kind of experiment: Inhibition of human ABCB1 expressed in mouse L5178Y cells assessed as increase in rhodamine-123 accumulation by measuring side scatter count of cells at 2 uM pretreated for 10 mins followed by rhodamine-123 addition after 20 mins by flow cytometry (reference value: 903). In kind it is cell-based.
For data set [6] the target is unchanged. Description: Inhibition of human ABCB1 expressed in mouse L5178Y cells assessed as increase in rhodamine-123 accumulation by measuring side scatter count of cells at 20 uM pretreated for 10 mins followed by rhodamine-123 addition after 20 mins by flow cytometry (reference value: 903). In kind it is cell-based.
For data set [7] the target is unchanged. As to the kind of experiment: Inhibition of human ABCB1 expressed in mouse L5178Y cells assessed as fluorescence activity ratio at 2 uM pretreated for 10 mins followed by rhodamine-123 addition after 20 mins by flow cytometry. In kind it is cell-based.
For data set [8] the target is unchanged. As to the kind of experiment: Inhibition of human ABCB1 expressed in mouse L5178Y cells assessed as fluorescence activity ratio at 20 uM pretreated for 10 mins followed by rhodamine-123 addition after 20 mins by flow cytometry. In kind it is cell-based.
The target is the same in data set [9]. As to the kind of experiment: Inhibition of human ABCB1 expressed in mouse L5178Y cells pretreated for 10 mins followed by rhodamine-123 addition after 20 mins by flow cytometry. In kind it is cell-based.
Data set [10] has the same target. As to the kind of experiment: Inhibition of human ABCB1 expressed in mouse L5178Y cells assessed as potentiation of doxorubicin-induced cytotoxicity by measuring combination index at 2:25 doxorubicin to compound ratio after 48 hrs by MTT assay. In kind it is cell-based.
Data set [11] has the same target. As to the kind of experiment: Inhibition of human ABCB1 expressed in mouse L5178Y cells assessed as potentiation of doxorubicin-induced cytotoxicity by measuring combination index at 2:5 doxorubicin to compound ratio after 48 hrs by MTT assay. In kind it is cell-based.
Data set [12] shares this target. Description: Inhibition of human ABCB1 expressed in mouse L5178Y cells assessed as potentiation of doxorubicin-induced cytotoxicity by measuring combination index at 4:25 doxorubicin to compound ratio after 48 hrs by MTT assay. In kind it is cell-based.

As a reminder, the IC50 is the point on the concentration scale where inhibition reaches its midpoint. Read a low IC50 as higher potency.

T1 sequence (P08183 whole entry): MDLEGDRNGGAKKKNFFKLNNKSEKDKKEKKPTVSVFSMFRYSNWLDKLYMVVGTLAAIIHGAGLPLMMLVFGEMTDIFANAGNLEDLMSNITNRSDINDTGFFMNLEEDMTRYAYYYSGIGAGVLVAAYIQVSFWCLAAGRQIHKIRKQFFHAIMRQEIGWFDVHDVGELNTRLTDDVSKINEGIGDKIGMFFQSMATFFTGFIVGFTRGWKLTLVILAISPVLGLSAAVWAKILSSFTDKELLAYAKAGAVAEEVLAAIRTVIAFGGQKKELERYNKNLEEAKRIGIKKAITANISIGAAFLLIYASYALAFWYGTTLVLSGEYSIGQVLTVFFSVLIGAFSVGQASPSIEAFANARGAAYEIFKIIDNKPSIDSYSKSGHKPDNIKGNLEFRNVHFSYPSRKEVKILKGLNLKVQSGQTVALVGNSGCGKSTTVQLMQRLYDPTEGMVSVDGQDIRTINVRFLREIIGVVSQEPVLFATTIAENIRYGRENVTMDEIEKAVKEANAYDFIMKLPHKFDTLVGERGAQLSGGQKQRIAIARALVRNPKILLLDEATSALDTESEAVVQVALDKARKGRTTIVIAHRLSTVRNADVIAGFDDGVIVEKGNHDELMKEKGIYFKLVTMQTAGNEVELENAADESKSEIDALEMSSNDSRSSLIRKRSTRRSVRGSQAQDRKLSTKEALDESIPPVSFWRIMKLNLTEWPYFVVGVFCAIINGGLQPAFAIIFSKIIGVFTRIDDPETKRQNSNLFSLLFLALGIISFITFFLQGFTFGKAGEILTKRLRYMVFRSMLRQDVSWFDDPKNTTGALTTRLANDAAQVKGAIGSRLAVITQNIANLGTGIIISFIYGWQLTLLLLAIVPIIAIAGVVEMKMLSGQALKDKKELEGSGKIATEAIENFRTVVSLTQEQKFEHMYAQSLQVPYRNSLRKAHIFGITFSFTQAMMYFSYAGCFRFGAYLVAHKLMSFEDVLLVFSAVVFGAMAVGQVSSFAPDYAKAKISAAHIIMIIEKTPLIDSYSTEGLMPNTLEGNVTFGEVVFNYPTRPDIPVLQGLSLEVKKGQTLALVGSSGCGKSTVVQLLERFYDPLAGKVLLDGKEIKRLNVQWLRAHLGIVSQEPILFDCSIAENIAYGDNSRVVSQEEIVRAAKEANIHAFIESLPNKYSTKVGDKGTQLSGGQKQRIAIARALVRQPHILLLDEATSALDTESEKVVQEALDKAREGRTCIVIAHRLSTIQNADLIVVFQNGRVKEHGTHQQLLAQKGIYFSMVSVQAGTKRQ

Take `CC[C@@H]1CN(C)[C@H]2Cc3c([nH]c4ccccc34)/C(=N/Nc3ccccc3)C[C@H]1[C@@H]2C(=O)OC`: the values for the IC50 in the data set with L5178Y and in the data set on NIH3T3 were 11.4 µM and 19.9 µM, respectively. Further, the “Ratio IC50” value was 0.67 in [1] and 1.74 in [2]. Moreover, the Activity in [3] came to 2129; in [4] it was 2046; in data set [5], 941; in data set [6], 955. The Ratio in data set [7] amounted to 5.49; in data set [8], 59.65. In data set [9], the “inhibition (INH)” value was “Dose-dependent effect”. Also, in [10], the CI stood at 0.2.
As for `CC[C@H]1CN(C)[C@H]2Cc3c([nH]c4ccccc34)/C(=N/Nc3cnccn3)C[C@H]1[C@@H]2C(=O)OC`, the IC50 is 75 µM with L5178Y and greater than 100 µM in the data set with NIH3T3. The “Ratio IC50” value in data set [1] is 0.88. Besides, the Activity in [3] came out at 2227; in [4], 2229; in data set [5] it was 1058; in data set [6], 1038. For the same compound, the Ratio in [7] was found to be 8.49; in data set [8], 60.79. Also, in data set [9], the “inhibition (INH)” value is recorded as “Dose-dependent effect”. Besides, in data set [11], the CI worked out at 0.1.
As for `CC[C@@H]1CN(C)[C@H]2Cc3c([nH]c4ccccc34)[C@@H](O)C[C@H]1[C@@H]2C(=O)OC`, the IC50 was 55.6 µM in the data set on L5178Y and greater than 100 µM with NIH3T3. The “Ratio IC50” value in [1] is 0.66. Besides, the Activity stood at 2251 in data set [3], 2083 in [4], 793 in data set [5] and 788 in data set [6]. Also, the Ratio in [7] was found to be 0.88; in data set [8], 1.36. Moreover, the “inhibition (INH)” value in [9] is listed as “Dose-dependent effect”. The CI in [11] was found to be 0.4.
Turning to `CC[C@@H]1CN(C)[C@H]2Cc3c([nH]c4ccccc34)/C(=N/Nc3cnccn3)C[C@H]1[C@@H]2C(=O)OC`, the IC50 in the data set on L5178Y was 63.9 µM; with NIH3T3, greater than 100 µM. Also, the Activity in data set [3] was determined as 2283; in [4] it was 2265; in [5] it was 793; in [6], 765. The Ratio came to 10.28 in [7] and 78.79 in [8]. Moreover, in data set [9], the “inhibition (INH)” value is “Dose-dependent effect”. Also, in data set [11], the CI is 0.31.
Take `CC[C@H]1CN(C)[C@H]2Cc3c(n(C)c4ccccc34)C(=O)C[C@H]1[C@@H]2C(=O)OC`: the results for the IC50 in the data set with L5178Y and in the data set with NIH3T3 were 40.4 µM and greater than 100 µM, respectively. Further, the “Ratio IC50” value in data set [1] was 0.45. Besides, the Activity is listed as 2435 in [3], 2428 in data set [4], 1214 in [5] and 1197 in data set [6]. Also, the Ratio came to 1.81 in [7] and 46.7 in data set [8]. Moreover, in data set [9], the “inhibition (INH)” value is given as “Dose-dependent effect”. For the same compound, in [11], the CI turned out to be 0.24.
For the compound `CC[C@H]1CN(C)[C@H]2Cc3c([nH]c4ccccc34)/C(=N/Nc3ccccc3)C[C@H]1[C@@H]2C(=O)OC`, the IC50 in the data set on L5178Y is 44.2 µM; with NIH3T3, greater than 100 µM. Further, in data set [1], the “Ratio IC50” value was 0.84. For the same compound, the Activity in data set [3] is given as 2183; in data set [4] it was 2158; in data set [5], 1046; in [6], 1071. The Ratio in data set [7] came out at 8.84; in data set [8] it was 60.89. For the same compound, the “inhibition (INH)” value in data set [9] is reported as “Dose-dependent effect”. The CI in data set [12] is recorded as 0.34.

For the origin of these results see ChEMBL document CHEMBL4004848, “Dregamine and tabernaemontanine derivatives as ABCB1 modulators on resistant cancer cells” (Eur J Med Chem, 2017).
